Measured values as given in ChEMBL document CHEMBL5055665, “Discovery of the Triazolo[1,5-a]Pyrimidine-Based Derivative WS-898 as a Highly Efficacious and Orally Bioavailable ABCB1 Inhibitor Capable of Overcoming Multidrug Resistance” (J Med Chem, 2021).
Activity calls are given as the source filed them. The calls are words filed in the database; no cut-off is given here.

Legend:
[1] = tested on: Mus musculus; test: Toxicity in BALB/c mouse xenografted with human SW-620/AD300 cells assessed as mortality at 30 mg/kg/day, ig administered 21 days in presence of paclitaxel; assay type: organism-based; details: in vivo, po, 504 h, time 21 day
[2] = tested on: KB 3-1; test: Reversal of resistance to paclitaxel-induced cytotoxicity in human KB 3-1 cells assessed as reduction in paclitaxel IC50 at 1 uM preincubated for 4 hrs followed by paclitaxel addition and measured after 72 hrs by MTT assay (reference value: 4.54 +/- 1.59 nM); assay type: functional, cell-based
[3] = tested on: KB 3-1; test: Reversal of resistance to paclitaxel-induced cytotoxicity in human KB 3-1 cells assessed as reversal fold at 1 uM preincubated for 4 hrs followed by paclitaxel addition and measured after 72 hrs by MTT assay relative to paclitaxel; assay type: functional; details: time 76 hrs
[4] = tested on: HEK293; test: Reversal of resistance to paclitaxel-induced cytotoxicity in human HEK293/pcDNA3.1 cells assessed as reversal fold at 2 uM preincubated for 4 hrs followed by paclitaxel addition and measured after 72 hrs by MTT assay; assay type: functional; details: time 76 hrs
[5] = tested on: SW-620; test: Reversal of resistance to paclitaxel-induced cytotoxicity in human SW-620/AD300 cells assessed as reversal fold at 1 uM preincubated for 4 hrs followed by paclitaxel addition and measured after 72 hrs by MTT assay relative to paclitaxel; assay type: functional; details: time 76 hrs
[6] = tested on: HEK293; test: Reversal of resistance to paclitaxel-induced cytotoxicity in human HEK293/pcDNA3.1 cells assessed as reduction in paclitaxel IC50 at 1 uM preincubated for 4 hrs followed by paclitaxel addition and measured after 72 hrs by MTT assay (reference value: 1.93 +/- 0.06 nM); assay type: functional, cell-based
[7] = tested on: HEK293; test: Reversal of resistance to paclitaxel-induced cytotoxicity in human HEK293/ABCB1 cells assessed as reduction in paclitaxel IC50 at 2 uM preincubated for 4 hrs followed by paclitaxel addition and measured after 72 hrs by MTT assay (reference value: 91.40 +/- 23.32 nM); assay type: functional, cell-based
[8] = tested on: HEK293; test: Reversal of resistance to paclitaxel-induced cytotoxicity in human HEK293/pcDNA3.1 cells assessed as reversal fold at 1 uM preincubated for 4 hrs followed by paclitaxel addition and measured after 72 hrs by MTT assay; assay type: functional; details: time 76 hrs
[9] = tested on: KB-C2; test: Reversal of resistance to paclitaxel-induced cytotoxicity in human KB-C2 cells assessed as reversal fold at 1 uM preincubated for 4 hrs followed by paclitaxel addition and measured after 72 hrs by MTT assay relative to paclitaxel; assay type: functional; details: time 76 hrs
[10] = target: ATP-dependent translocase ABCB1 (Homo sapiens, UniProt P08183); test: Activation of ABCB1 ATPase activity (unknown origin) assessed as fold stimulation of ATP hydrolysis at 0 to 20 uM using Mg-ATP as substrate incubated for 20 mins by spectrophotometric method; details: dose 0-20 µM
Sequence of ATP-dependent translocase ABCB1 (P08183 whole entry): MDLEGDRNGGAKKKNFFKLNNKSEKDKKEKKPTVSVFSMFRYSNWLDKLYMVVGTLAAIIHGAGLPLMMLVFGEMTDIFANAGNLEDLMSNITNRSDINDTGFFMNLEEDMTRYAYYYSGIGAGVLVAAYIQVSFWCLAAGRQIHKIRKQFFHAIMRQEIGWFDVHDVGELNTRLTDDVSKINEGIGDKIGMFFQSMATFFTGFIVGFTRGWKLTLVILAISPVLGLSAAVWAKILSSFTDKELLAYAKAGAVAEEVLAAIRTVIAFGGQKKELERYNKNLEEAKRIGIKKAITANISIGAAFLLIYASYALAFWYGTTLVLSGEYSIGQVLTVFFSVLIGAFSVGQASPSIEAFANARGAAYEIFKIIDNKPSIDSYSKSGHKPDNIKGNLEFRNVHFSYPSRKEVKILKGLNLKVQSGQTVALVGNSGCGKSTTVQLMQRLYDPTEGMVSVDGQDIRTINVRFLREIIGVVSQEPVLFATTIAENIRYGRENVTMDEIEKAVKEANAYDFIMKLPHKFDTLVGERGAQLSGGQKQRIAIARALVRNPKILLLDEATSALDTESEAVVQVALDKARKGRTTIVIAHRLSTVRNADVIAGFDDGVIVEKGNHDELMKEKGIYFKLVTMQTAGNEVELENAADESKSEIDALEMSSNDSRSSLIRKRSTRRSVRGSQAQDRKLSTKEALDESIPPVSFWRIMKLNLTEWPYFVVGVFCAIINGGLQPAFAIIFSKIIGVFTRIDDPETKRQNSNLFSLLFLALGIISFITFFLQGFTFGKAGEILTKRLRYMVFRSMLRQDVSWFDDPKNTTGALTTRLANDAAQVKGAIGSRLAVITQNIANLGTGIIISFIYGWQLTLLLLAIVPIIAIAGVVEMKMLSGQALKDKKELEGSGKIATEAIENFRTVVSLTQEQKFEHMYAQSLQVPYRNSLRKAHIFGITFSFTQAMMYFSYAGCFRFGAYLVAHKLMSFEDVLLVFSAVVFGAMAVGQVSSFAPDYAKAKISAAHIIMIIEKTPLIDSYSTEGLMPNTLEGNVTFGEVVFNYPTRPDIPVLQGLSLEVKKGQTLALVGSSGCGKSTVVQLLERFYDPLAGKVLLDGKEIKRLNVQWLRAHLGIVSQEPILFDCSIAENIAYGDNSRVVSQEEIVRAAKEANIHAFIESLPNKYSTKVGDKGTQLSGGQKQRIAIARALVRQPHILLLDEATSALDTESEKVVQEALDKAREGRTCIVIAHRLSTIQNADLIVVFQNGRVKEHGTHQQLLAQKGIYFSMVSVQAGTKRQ

[11] = tested on: Mus musculus; test: Hepatotoxicity in BALB/c mouse xenografted with human SW-620/AD300 cells at 30 mg/kg/day, ig administered for 21 days in presence of paclitaxel; assay type: toxicity, organism-based; details: in vivo, po, 504 h, time 21 day
[12] = tested on: SW-620; test: Antitumor activity against human SW-620/AD300 cells xenografted in BALB/c nude mouse assessed as increase in tumor cell apoptosis at 30 mg/kg/day, ig administered for 21 days in presence of paclitaxel by TUNEL staining based fluorescence microscopy; assay type: functional, organism-based; details: time 21.0 day
[13] = Half life in Sprague-Dawley rat at 10 mg/kg, iv measured up to 24 hrs by LC-MS/MS analysis; assay type: ADME, organism-based; details: in vivo
[14] = Clearance in Sprague-Dawley rat at 10 mg/kg, iv measured up to 24 hrs by LC-MS/MS analysis; assay type: ADME, organism-based; details: in vivo
[15] = tested on: SW-620; test: Effect on ABCB1 expression in human SW-620/AD300 cells at 2 uM measured upto 96 hrs by Western blot analysis; assay type: functional, cell-based
[16] = MRTlast in Sprague-Dawley rat at 10 mg/kg, iv measured up to 24 hrs by LC-MS/MS analysis; assay type: ADME, organism-based; details: in vivo
[17] = tested on: SW-620; test: Antitumor activity against human SW-620/AD300 cells xenografted in BALB/c nude mouse assessed as reduction in tumor weight at 30 mg/kg/day, ig administered for 21 days in presence of paclitaxel; assay type: functional, organism-based; details: time 21.0 day

**Q.** With `Cc1cc(Nc2ccc(C(=O)/C=C/c3ccc4ccccc4c3)cc2)n2nc(SCc3nc4ccccc4[nH]3)nc2n1` as the molecule, how does the Activity [1] read?
**A.** Non-Toxic

**Q.** What about the IC50 [2] of the same molecule?
**A.** 4.09 nM

**Q.** And the “fold change (FC)” value [3]?
**A.** 1.11

**Q.** And the “fold change (FC)” value [4]?
**A.** 1.47

**Q.** And the “fold change (FC)” value [5]?
**A.** 150.38

**Q.** What about the IC50 [6] of the same molecule?
**A.** 1.69 nM

**Q.** And the IC50 [7]?
**A.** 3.68 nM

**Q.** And the “fold change (FC)” value [8]?
**A.** 1.14

**Q.** What about the “fold change (FC)” value [9] of the same molecule?
**A.** 118.34

**Q.** What about the “fold change (FC)” value [10] of the same molecule?
**A.** 4.68

**Q.** And the Activity [11]?
**A.** Non-Toxic

**Q.** And the Activity [12]?
**A.** Active

**Q.** What about the half-life [13] of the same molecule?
**A.** 85.8 min

**Q.** What about the clearance [14] of the same molecule?
**A.** 17.7 mL/min/kg

**Q.** And the Activity [15]?
**A.** inactive

**Q.** And the MRT last at 24 h [16]?
**A.** 5.76 min

**Q.** What about the Activity [17] of the same molecule?
**A.** Active
